{"source": "patent US8394959B2", "about": "“Maleate salts of (E)-N-{4-[3-chloro-4-(2-pyridinylmethoxy)anilino]-3-cyano-7-ethoxy-6-quinolinyl)-4-(dimethylamino)-2-buteramide and crystalline forms thereof” (Wyeth LLC, priority 2007, dated 2013)", "format_in_all_cases": "physicochemical", "key": {"[1]": {"assay": "Solid state stability in closed and open containers at 40° C. and 75% RH", "from_the_text": "Both Form I and Form II remained stable for 6 months under these conditions. […] Samples in the closed containers remained dry. HPLC purity analysis indicated no significant increase in degradation products in both open and closed conditions for up to 6 months."}, "[2]": {"assay": "Stability of crystalline forms of the reslurry at room temperature for 14 days", "conditions": "reslurry in Ethyl acetate", "from_the_text": "In one embodiment the re-slurry is allowed to stand for about 14 days."}, "[3]": {"assay": "Dynamic vapor sorption (DVS) hygroscopicity", "conditions": "DVS isotherm, FIG. 2; especially at 60% RH and above", "from_the_text": "The relative stability and hygroscopicity of the two crystalline forms of the maleate salt was studied in detail by dynamic vapor sorption (DVS)."}, "[4]": {"conditions": "Closed Vial at 40° C./75% RH, 1 week in storage"}, "[5]": {"conditions": "Closed Vial at 40° C./75% RH, 2 weeks in storage"}, "[6]": {"conditions": "Closed Vial at 40° C./75% RH, 4 weeks in storage"}, "[7]": {"conditions": "Closed Vial at 40° C./75% RH, 12 weeks in storage"}, "[8]": {"conditions": "Closed Vial at 40° C./75% RH, 24 weeks in storage"}, "[9]": {"conditions": "Closed Vial at 40° C./75% RH, Initial"}, "[10]": {"conditions": "Open Vial at 40° C./75% RH, 1 week in storage"}, "[11]": {"conditions": "Open Vial at 40° C./75% RH, 2 weeks in storage"}, "[12]": {"conditions": "Open Vial at 40° C./75% RH, 4 weeks in storage"}, "[13]": {"conditions": "Open Vial at 40° C./75% RH, 12 weeks in storage"}, "[14]": {"conditions": "Open Vial at 40° C./75% RH, 24 weeks in storage"}, "[15]": {"conditions": "Open Vial at 40° C./75% RH, Initial"}}, "data": [{"smiles": "CCOc1cc2ncc(C#N)c(Nc3ccc(OCc4ccccn4)c(Cl)c3)c2cc1NC(=O)/C=C/CN(C)C.O=C(O)/C=C\\C(=O)O", "note": "[Form I]", "values": [{"measurement": "Moisture", "setting": "[1]; [4]", "value": 0.39, "unit": "%"}, {"measurement": "Potency (dry basis)", "setting": "[1]; [4]", "value": 100.46, "unit": "%"}, {"measurement": "Potency as is", "setting": "[1]; [4]", "value": 100.07, "unit": "%"}, {"measurement": "Total impurities", "setting": "[1]; [4]", "value": 0.57, "unit": "%"}, {"measurement": "Moisture", "setting": "[1]; [5]", "value": 0.34, "unit": "%"}, {"measurement": "Potency (dry basis)", "setting": "[1]; [5]", "value": 100.38, "unit": "%"}, {"measurement": "Potency as is", "setting": "[1]; [5]", "value": 100.03, "unit": "%"}, {"measurement": "Total impurities", "setting": "[1]; [5]", "value": 0.64, "unit": "%"}, {"measurement": "Moisture", "setting": "[1]; [6]", "value": 0.22, "unit": "%"}, {"measurement": "Potency (dry basis)", "setting": "[1]; [6]", "value": 97.09, "unit": "%"}, {"measurement": "Potency as is", "setting": "[1]; [6]", "value": 96.87, "unit": "%"}, {"measurement": "Total impurities", "setting": "[1]; [6]", "value": 0.61, "unit": "%"}, {"measurement": "Moisture", "setting": "[1]; [7]", "value": 0.46, "unit": "%"}, {"measurement": "Potency (dry basis)", "setting": "[1]; [7]", "value": 100.67, "unit": "%"}, {"measurement": "Potency as is", "setting": "[1]; [7]", "value": 100.21, "unit": "%"}, {"measurement": "Total impurities", "setting": "[1]; [7]", "value": 0.66, "unit": "%"}, {"measurement": "Moisture", "setting": "[1]; [8]", "value": 0.16, "unit": "%"}, {"measurement": "Potency (dry basis)", "setting": "[1]; [8]", "value": 99.12, "unit": "%"}, {"measurement": "Potency as is", "setting": "[1]; [8]", "value": 98.96, "unit": "%"}, {"measurement": "Total impurities", "setting": "[1]; [8]", "value": 0.68, "unit": "%"}, {"measurement": "Moisture", "setting": "[1]; [9]", "value": 0.35, "unit": "%"}, {"measurement": "Potency (dry basis)", "setting": "[1]; [9]", "value": 100.85, "unit": "%"}, {"measurement": "Potency as is", "setting": "[1]; [9]", "value": 100.50, "unit": "%"}, {"measurement": "Total impurities", "setting": "[1]; [9]", "value": 0.57, "unit": "%"}, {"measurement": "Moisture", "setting": "[1]; [10]", "value": 2.82, "unit": "%"}, {"measurement": "Potency (dry basis)", "setting": "[1]; [10]", "value": 102.01, "unit": "%"}, {"measurement": "Potency as is", "setting": "[1]; [10]", "value": 99.13, "unit": "%"}, {"measurement": "Total impurities", "setting": "[1]; [10]", "value": 0.55, "unit": "%"}, {"measurement": "Moisture", "setting": "[1]; [11]", "value": 2.86, "unit": "%"}, {"measurement": "Potency (dry basis)", "setting": "[1]; [11]", "value": 100.37, "unit": "%"}, {"measurement": "Potency as is", "setting": "[1]; [11]", "value": 97.50, "unit": "%"}, {"measurement": "Total impurities", "setting": "[1]; [11]", "value": 0.65, "unit": "%"}, {"measurement": "Moisture", "setting": "[1]; [12]", "value": 2.74, "unit": "%"}, {"measurement": "Potency (dry basis)", "setting": "[1]; [12]", "value": 97.96, "unit": "%"}, {"measurement": "Potency as is", "setting": "[1]; [12]", "value": 95.27, "unit": "%"}, {"measurement": "Total impurities", "setting": "[1]; [12]", "value": 0.58, "unit": "%"}, {"measurement": "Moisture", "setting": "[1]; [13]", "value": 2.98, "unit": "%"}, {"measurement": "Potency (dry basis)", "setting": "[1]; [13]", "value": 101.13, "unit": "%"}, {"measurement": "Potency as is", "setting": "[1]; [13]", "value": 98.12, "unit": "%"}, {"measurement": "Total impurities", "setting": "[1]; [13]", "value": 0.65, "unit": "%"}, {"measurement": "Moisture", "setting": "[1]; [14]", "value": 2.79, "unit": "%"}, {"measurement": "Potency (dry basis)", "setting": "[1]; [14]", "value": 100.01, "unit": "%"}, {"measurement": "Potency as is", "setting": "[1]; [14]", "value": 97.22, "unit": "%"}, {"measurement": "Total impurities", "setting": "[1]; [14]", "value": 0.69, "unit": "%"}, {"measurement": "Moisture", "setting": "[1]; [15]", "value": 0.35, "unit": "%"}, {"measurement": "Potency (dry basis)", "setting": "[1]; [15]", "value": 100.85, "unit": "%"}, {"measurement": "Potency as is", "setting": "[1]; [15]", "value": 100.50, "unit": "%"}, {"measurement": "Total impurities", "setting": "[1]; [15]", "value": 0.57, "unit": "%"}, {"measurement": "time remained stable", "setting": "[1]; closed and open containers at 40° C. and 75% RH", "value": 6, "unit": "months"}, {"measurement": "water uptake in open containers", "setting": "[1]; open containers at 40° C. and 75% RH", "value": "rapidly absorbed one mole of water to form the monohydrate form"}, {"measurement": "Final Form, wet cake", "setting": "[2]", "value": "I + some II"}, {"measurement": "relative humidity at which moisture is gained", "setting": "[3]", "value": "above 40 % relative humidity (RH)"}]}]}
